Test results taken from US8410166B2, “Fused bicyclic compound” (Mitsubishi Tanabe Pharma Corporation, priority 2007, dated 2013).

target: T1, mineralocorticoid receptor (MR) (Rattus norvegicus, UniProt P22199); assay: Aldosterone receptor binding assay (rat kidney cytosol, [3H]aldosterone); conditions: MR derived from rat kidney, 3H-aldosterone; read-out: Ki values in 3H-aldosterone binding to MR
T1 construct: the homogenate was centrifuged at 100,000×g for 1 hour to give a supernatant as a kidney cytosol fraction; from tissue; host or cells: kidney cytosol fraction of adrenalectomised male Sprague-Dawley rats
T1 sequence (P22199 1-981): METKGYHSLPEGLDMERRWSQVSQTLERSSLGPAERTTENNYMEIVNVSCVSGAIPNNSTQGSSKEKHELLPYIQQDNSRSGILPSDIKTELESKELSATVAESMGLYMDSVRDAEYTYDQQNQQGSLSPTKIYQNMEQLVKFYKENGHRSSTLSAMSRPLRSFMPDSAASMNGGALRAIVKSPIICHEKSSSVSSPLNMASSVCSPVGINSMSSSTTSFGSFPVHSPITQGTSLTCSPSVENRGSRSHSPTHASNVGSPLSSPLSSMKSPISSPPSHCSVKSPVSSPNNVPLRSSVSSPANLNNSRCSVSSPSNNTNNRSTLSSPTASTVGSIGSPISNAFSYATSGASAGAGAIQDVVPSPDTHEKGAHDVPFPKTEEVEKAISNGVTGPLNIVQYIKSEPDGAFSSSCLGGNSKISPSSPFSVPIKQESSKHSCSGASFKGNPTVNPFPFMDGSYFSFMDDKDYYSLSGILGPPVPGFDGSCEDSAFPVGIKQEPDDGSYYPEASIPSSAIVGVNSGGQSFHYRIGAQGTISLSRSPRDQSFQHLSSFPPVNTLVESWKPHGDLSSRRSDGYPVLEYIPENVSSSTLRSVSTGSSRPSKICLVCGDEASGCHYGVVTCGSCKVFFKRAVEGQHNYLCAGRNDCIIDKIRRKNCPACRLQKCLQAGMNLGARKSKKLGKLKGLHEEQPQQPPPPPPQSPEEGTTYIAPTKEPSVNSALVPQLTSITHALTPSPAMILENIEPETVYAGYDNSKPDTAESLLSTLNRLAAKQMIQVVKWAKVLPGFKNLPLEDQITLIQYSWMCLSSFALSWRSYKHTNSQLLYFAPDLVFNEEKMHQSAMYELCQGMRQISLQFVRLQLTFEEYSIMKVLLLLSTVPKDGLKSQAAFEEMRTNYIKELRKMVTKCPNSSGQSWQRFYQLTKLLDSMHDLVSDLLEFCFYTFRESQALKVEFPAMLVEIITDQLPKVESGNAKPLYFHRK
Description: The compound of the present invention has a high affinity to a mineralocorticoid receptor (MR) of mammals. For example, in a biding assay using a rat MR and ^3H-aldosterone, which was conducted according to a method disclosed in The Journal of Pharmacology and Experimental Therapeutics, 1987; 240: p. […] Accordingly, the compound [I] is useful for treating and/or preventing the diseases associated with MR, e.g., circulatory system disease including hypertension and heart failure etc.
[Aldosterone Receptor Binding Assay]
(1) Preparation of Kidney Cytosol Fraction:
Kidneys derived from post-adrenalectomy Sprague-Dawley male rats (7 weeks old) were homogenized in the following buffer solution and the homogenate was centrifuged at 100,000×g for 1 hour to give a supernatant as a kidney cytosol fraction (protein concentration: 15 mg/mL) for the present biding assay.
Composition of Buffer Solution:
50 mM Tris-HCl (pH 7.5), 250 mM Sucrose, 50 mM Potassium chloride, 3 mM Magnesium chloride, 20 mM Sodium molybdate and 1 mM Mercaptoethanol
A mixture of 5 μL of a solution of each test compound in dimethylsulfoxide, 200 μL of kidney cytosol fraction, 50 μL of physiological saline (or 50 μL of unlabeled aldosterone solution (final concentration: 1 μM) and 50 μL of [^3H] aldosterone solution (ca. 2 nM) was incubated in a test tube at 4° C. overnight. Thereto was added 100 μL of dextrane-coated charcoal/10 mM Tris-HCl buffer and the mixture was incubated at 4° C. for 30 minutes. The reaction mixture was centrifuged at 3000 rpm for 10 minutes and to the supernatant (150 μL) was added 5 mL of a scintillater (Clearsol I, Nakarai Tesque). The radioactivity was measured by a liquid scintilation counter (TRI CARB 2200C A, Packard). The concentration of each test compound required to produce 50% inhibition of aldosterone-binding to receptors (IC50; μM) was calculated on the basis of the above quantitated radioactivity. Moreover, the dissociation constant (Ki) of each test compound was calculated on Cheng and Prusoff s equation (Ki=IC50/(1+[L]/Kd), wherein [L] is [^3H]aldosterone concentration and Kd is the affinity constant of aldosterone).

| Structure (SMILES) | Ki [nM] |
| --- | --- |
| CC1(C)N=C(c2ccc(Cl)cc2)c2ccc(NS(C)(=O)=O)cc2O1 [Example 1, N-[4-(4-chlorophenyl)-2.2-dimethyl-2H-1,3-benzoxazin-7-yl]methanesulfonamide] | < 10000 |
| CC1(C)N=C(c2ccc(F)cc2)c2c(F)cc(N)cc2O1 [5-fluoro-4-(4-fluorophenyl)-2,2-dimethyl-2H-1,3-benzoxazin-7-amine] | < 10000 |
| CC1=C(c2ccc(F)cc2)c2ccc(NS(C)(=O)=O)cc2OC1(C)C [Example 6, N-[4-(4-fluorophenyl)-2,2,3-trimethyl-2H-chromen-7-yl]methanesulfonamide] | < 10000 |
| CC1(C)Oc2cc(N)ccc2C(c2ccc(F)cc2)=C1C#N [7-amino-4-(4-fluorophenyl)-2,2-dimethyl-2H-chromen-3-carbonitrile] | < 10000 |

same assay, conditions: [3H]aldosterone binding to MR of rat kidney cytosol fraction; Ki by Cheng-Prusoff; read-out: Ki

| Structure (SMILES) | Ki [nM] |
| --- | --- |
| CNS(=O)(=O)c1ccc2c(c1)OC(C)(C)N=C2c1ccc(F)cc1 [Example 61, N,2,2-trimethyl-4-(4-fluorophenyl)-2H-1,3-benzoxazin-7-sulfonamide] | 500 to 1000 |
| CC1(C)N=C(c2ccc(Cl)cc2)c2ccc(NS(C)(=O)=O)cc2O1 [Example 1, N-[4-(4-chlorophenyl)-2.2-dimethyl-2H-1,3-benzoxazin-7-yl]methanesulfonamide] | < 500 |
| CC1(C)CC(c2ccc(F)cc2)c2ccc(NS(C)(=O)=O)cc2O1 (centres unmarked) [Example 8, N-[4-(4-fluorophenyl)-2,2-dimethyl-3,4-dihydro-2H-chromen-7-yl]methanesulfonamide] | < 500 |
| Cc1cc(Cl)ccc1C1=CC(C)(C)Oc2cc(NS(C)(=O)=O)ccc21 [Example 42] | < 500 |
| CC1=C(c2ccc(F)cc2)c2ccc(NS(C)(=O)=O)cc2OC1(C)C [Example 6, N-[4-(4-fluorophenyl)-2,2,3-trimethyl-2H-chromen-7-yl]methanesulfonamide] | < 500 |
| CC1(C)Oc2cc(NS(C)(=O)=O)ccc2C(c2ccc(Cl)c(F)c2)=C1C#N [Example 53] | < 500 |
| CS(=O)(=O)Nc1ccc2c(c1)OC1(CCCC1)C(C#N)=C2c1ccc(F)cc1 [Example 55(2) compound (a), N-[3-cyano-4-(4-fluorophenyl)spiro[chromen-2′,1′-cyclopentan]-7-yl]methanesulfonamide] | < 500 |
| CC1(C)N=C(c2ccccc2)c2ccc(NS(C)(=O)=O)cc2O1 [Example 10] | 500 to 1000 |
| CC1(C)N=C(c2csc3ccccc23)c2ccc(NS(C)(=O)=O)cc2O1 [Example 26] | < 500 |
| Cc1cc(NS(C)(=O)=O)cc2c1C(c1ccc(F)cc1)=NC(C)(C)O2 [Example 47] | < 500 |
